# Test results from US20260232767A1, “INTERLEUKIN-23 RECEPTOR ANTAGONIST PEPTIDES FOR USE IN THE TREATMENT OF PSORIASIS” (Janssen Pharmaceutica NV, priority 2023, published 2026).
# Tested on: subjects with moderate-to-severe plaque psoriasis
# Assay: Safety, adverse events, Example 2 through Week 56
# Type: in vivo, human
# Description: The LTE safety analysis was based on randomized participants in Example who entered the present long-term extension study and received at least one dose of study intervention (including a partial dose) during the study period.
# [1] = Combined, Week 16 through Week 56
structure (smiles),measurement,setting,value
"CC(=O)NCCCC[C@@H]1NC(=O)[C@H](Cc2c[nH]c3c(C)cccc23)NC(=O)[C@H]([C@@H](C)O)NC(=O)[C@H](CC(N)=O)NC(=O)[C@@H](NC(C)=O)C(C)(C)SSC(C)(C)[C@@H](C(=O)N[C@@H](Cc2ccc(OCCN)cc2)C(=O)N[C@@H](Cc2ccc3ccccc3c2)C(=O)NC2(C(=O)N[C@@H](CCC(=O)O)C(=O)N[C@@H](CC(N)=O)C(=O)N[C@@H](Cc3cccnc3)C(=O)N(C)CC(N)=O)CCOCC2)NC1=O [IL-23 receptor antagonist peptide, Ac-[Pen]*-N-T-[W(7-Me)]-[Lys(Ac)]-[Pen]*-Phe[4-(2-aminoethoxy)]-[2-Nal]-[THP]-E-N-[3-Pal]-Sarc-NH2 (*[Pen]-[Pen]* formdisulfidebond)]","Respiratory, thoracic and mediastinal disorders: number of subjects","100 mg QD, through Week 56",4
same,Retinal vein occlusion: number of subjects,"100 mg QD, through Week 56",0
same,Rhinorrhoea: number of subjects,"100 mg QD, through Week 56",0
same,Seasonal allergy: number of subjects,"100 mg QD, through Week 56",0
same,Skin and subcutaneous tissue disorders: % of subjects,"100 mg QD, through Week 56",(4.7%)
same,Skin and subcutaneous tissue disorders: number of subjects,"100 mg QD, through Week 56",2
same,Skin laceration: % of subjects,"100 mg QD, through Week 56",(2.3%)
same,Skin laceration: number of subjects,"100 mg QD, through Week 56",1
same,Skin papilloma: number of subjects,"100 mg QD, through Week 56",0
same,Social circumstances: number of subjects,"100 mg QD, through Week 56",0
same,Steatohepatitis: number of subjects,"100 mg QD, through Week 56",0
same,Subjects with AE leading to discontinuation: Abdominal discomfort,"100 mg QD, through Week 56",0
same,Subjects with AE leading to discontinuation: Abdominal pain,"100 mg QD, through Week 56",0
same,Subjects with AE leading to discontinuation: Alanine aminotransferase increased,"100 mg QD, through Week 56",0
same,Subjects with AE leading to discontinuation: Aspartate aminotransferase increased,"100 mg QD, through Week 56",0
same,Subjects with AE leading to discontinuation: Asthenia,"100 mg QD, through Week 56",0
same,Subjects with AE leading to discontinuation: Gamma-glutamyltransferase increased,"100 mg QD, through Week 56",0
same,Subjects with AE leading to discontinuation: Insomnia,"100 mg QD, through Week 56",0
same,Subjects with AE leading to discontinuation: Investigations,"100 mg QD, through Week 56",0
same,Subjects with AE leading to discontinuation: Nausea,"100 mg QD, through Week 56",0
same,Subjects with AE leading to discontinuation: Proctalgia,"100 mg QD, through Week 56",0
same,Subjects with AE leading to discontinuation: Psoriasis,"100 mg QD, through Week 56",0
same,Subjects with AE leading to discontinuation: Skin and subcutaneous tissue disorders,"100 mg QD, through Week 56",0
same,Subjects with AE leading to discontinuation: Transaminases increased,"100 mg QD, through Week 56",0
same,Subjects with AE leading to discontinuation: Weight increased,"100 mg QD, through Week 56",0
same,Subjects with COVID-19 associated AE: SARS-CoV-2 test positive,"100 mg QD, through Week 56",0
same,Subjects with treatment-emergent AE: Alanine aminotransferase increased,"100 mg QD, through Week 56",0
same,Subjects with treatment-emergent AE: Aspartate aminotransferase increased,"100 mg QD, through Week 56",0
same,Subjects with treatment-emergent AE: Bronchitis,"100 mg QD, through Week 56",0
same,Subjects with treatment-emergent AE: Headache,"100 mg QD, through Week 56",5
same,Subjects with treatment-emergent AE: Urinary tract infection,"100 mg QD, through Week 56",0
same,Subjects with treatment-emergent serious AE: Cardiac disorders,"100 mg QD, through Week 56",0
same,Subjects with treatment-emergent serious AE: Cerebrovascular accident,"100 mg QD, through Week 56",0
same,Subjects with treatment-emergent serious AE: Coronary artery disease,"100 mg QD, through Week 56",0
same,Subjects with treatment-emergent serious AE: Foot deformity,"100 mg QD, through Week 56",0
same,Subjects with treatment-emergent serious AE: General disorders and administration site conditions,"100 mg QD, through Week 56",0
same,Subjects with treatment-emergent serious AE: Infected cyst,"100 mg QD, through Week 56",0
same,"Subjects with treatment-emergent serious AE: Injury, poisoning and procedural complications","100 mg QD, through Week 56",0
same,Subjects with treatment-emergent serious AE: Ligament injury,"100 mg QD, through Week 56",0
same,"Subjects with treatment-emergent serious AE: Neoplasms benign, malignant and unspecified (incl cysts and polyps)","100 mg QD, through Week 56",0
same,Subjects with treatment-emergent serious AE: Nervous system disorders,"100 mg QD, through Week 56",0
same,Subjects with treatment-emergent serious AE: Non-cardiac chest pain,"100 mg QD, through Week 56",0
same,"Subjects with treatment-emergent serious AE: Respiratory, thoracic and mediastinal disorders","100 mg QD, through Week 56",0
same,Subjects with treatment-emergent serious AE: Tonsillar hypertrophy,"100 mg QD, through Week 56",0
same,Subjects with treatment-emergent serious AE: Uterine leiomyoma,"100 mg QD, through Week 56",0
same,Subjects with treatment-emergent serious AE: Ventricular dysfunction,"100 mg QD, through Week 56",0
same,Suicide attempt: % of subjects,"100 mg QD, through Week 56",(2.3%)
same,Suicide attempt: number of subjects,"100 mg QD, through Week 56",1
same,Sunburn: number of subjects,"100 mg QD, through Week 56",0
same,Thrombocytopenia: number of subjects,"100 mg QD, through Week 56",0
same,Thrombocytosis: number of subjects,"100 mg QD, through Week 56",0
same,Tonsillar hypertrophy: number of subjects,"100 mg QD, through Week 56",0
same,Tooth fracture: number of subjects,"100 mg QD, through Week 56",0
same,Type 2 diabetes mellitus: number of subjects,"100 mg QD, through Week 56",0
same,Urinary tract disorder: number of subjects,"100 mg QD, through Week 56",0
same,Uterine leiomyoma: number of subjects,"100 mg QD, through Week 56",0
same,Vascular disorders: % of subjects,"100 mg QD, through Week 56",(2.3%)
same,Vascular disorders: number of subjects,"100 mg QD, through Week 56",1
same,Ventricular dysfunction: number of subjects,"100 mg QD, through Week 56",0
same,Vertigo: % of subjects,"100 mg QD, through Week 56",(2.3%)
same,Vertigo: number of subjects,"100 mg QD, through Week 56",1
same,Vitamin D deficiency: number of subjects,"100 mg QD, through Week 56",0
same,Number of subjects with treatment-emergent AE: Cholelithiasis,[1],1
same,Number of subjects with treatment-emergent AE: Ear and labyrinth disorders,[1],2
same,Number of subjects with treatment-emergent AE: Endocrine disorders,[1],1
same,Number of subjects with treatment-emergent AE: Eye disorders,[1],3
same,Number of subjects with treatment-emergent AE: Eyelid skin dryness,[1],1
same,Number of subjects with treatment-emergent AE: Goiter,[1],1
same,Number of subjects with treatment-emergent AE: Hepatobiliary disorders,[1],2
same,Number of subjects with treatment-emergent AE: Hypertransaminasemia,[1],1
same,Number of subjects with treatment-emergent AE: Immune system disorders,[1],2
same,Number of subjects with treatment-emergent AE: Insomnia,[1],1
same,Number of subjects with treatment-emergent AE: Ocular cyst,[1],1
same,Number of subjects with treatment-emergent AE: Psychiatric disorders,[1],1
same,Number of subjects with treatment-emergent AE: Retinal vein occlusion,[1],1
same,Number of subjects with treatment-emergent AE: Seasonal allergy,[1],2
same,Number of subjects with treatment-emergent AE: Vertigo,[1],2
same,Subjects with treatment-emergent AE: Cholelithiasis (%),[1],(0.4%)
same,Subjects with treatment-emergent AE: Ear and labyrinth disorders (%),[1],(0.9%)
same,Subjects with treatment-emergent AE: Endocrine disorders (%),[1],(0.4%)
same,Subjects with treatment-emergent AE: Eye disorders (%),[1],(1.3%)
same,Subjects with treatment-emergent AE: Eyelid skin dryness (%),[1],(0.4%)
same,Subjects with treatment-emergent AE: Goiter (%),[1],(0.4%)
same,Subjects with treatment-emergent AE: Hepatobiliary disorders (%),[1],(0.9%)
same,Subjects with treatment-emergent AE: Hypertransaminasemia (%),[1],(0.4%)
same,Subjects with treatment-emergent AE: Immune system disorders (%),[1],(0.9%)
same,Subjects with treatment-emergent AE: Insomnia (%),[1],(0.4%)
same,Subjects with treatment-emergent AE: Ocular cyst (%),[1],(0.4%)
same,Subjects with treatment-emergent AE: Psychiatric disorders (%),[1],(0.4%)
same,Subjects with treatment-emergent AE: Retinal vein occlusion (%),[1],(0.4%)
same,Subjects with treatment-emergent AE: Seasonal allergy (%),[1],(0.9%)
same,Subjects with treatment-emergent AE: Ventricular dysfunction (%),[1],(0.4%)
same,Subjects with treatment-emergent AE: Vertigo (%),[1],(0.9%)
same,Acrochordon: % of subjects,"Combined, through Week 56",(0.8%)
same,Acrochordon: number of subjects,"Combined, through Week 56",2
same,Actinic keratosis: % of subjects,"Combined, through Week 56",(0.4%)
same,Actinic keratosis: number of subjects,"Combined, through Week 56",1
same,Alopecia: % of subjects,"Combined, through Week 56",(0.4%)
same,Alopecia: number of subjects,"Combined, through Week 56",1
same,Asthenia: % of subjects,"Combined, through Week 56",(0.4%)
same,Asthenia: number of subjects,"Combined, through Week 56",1
same,Asthma: % of subjects,"Combined, through Week 56",(0.4%)
same,Asthma: number of subjects,"Combined, through Week 56",1
same,Atrioventricular block first degree: % of subjects,"Combined, through Week 56",(0.4%)
same,Atrioventricular block first degree: number of subjects,"Combined, through Week 56",1
same,Basal cell carcinoma: % of subjects,"Combined, through Week 56",(0.4%)
same,Basal cell carcinoma: number of subjects,"Combined, through Week 56",1
same,Blood and lymphatic system disorders: % of subjects,"Combined, through Week 56",(2.0%)
same,Blood and lymphatic system disorders: number of subjects,"Combined, through Week 56",5
same,Bronchitis chronic: % of subjects,"Combined, through Week 56",(0.4%)
same,Bronchitis chronic: number of subjects,"Combined, through Week 56",1
same,Bundle branch block right: % of subjects,"Combined, through Week 56",(0.4%)
same,Bundle branch block right: number of subjects,"Combined, through Week 56",1
same,Cardiac disorders: % of subjects,"Combined, through Week 56",(1.6%)
same,Cardiac disorders: number of subjects,"Combined, through Week 56",4
same,Chills: % of subjects,"Combined, through Week 56",(0.8%)
same,Chills: number of subjects,"Combined, through Week 56",2
same,Cholelithiasis: % of subjects,"Combined, through Week 56",(0.4%)
same,Cholelithiasis: number of subjects,"Combined, through Week 56",1
same,Chronic obstructive pulmonary disease: % of subjects,"Combined, through Week 56",(0.4%)
same,Chronic obstructive pulmonary disease: number of subjects,"Combined, through Week 56",1
